Source: patent US20100004283A1, “4-[(3-FLUOROPHENOXY)PHENYLMETHYL]PIPERIDINE METHANESULFONATE: USES, PROCESS OF SYNTHESIS AND PHARMACEUTICAL COMPOSITIONS” (priority 2006, published 2010)

Columns and labels:
[1] = system: immobility in the tail suspension test; conditions: mice, orally administered, acute; cited from earlier work
5-HTP-induced syndrome = conditions: mice, orally administered, acute; cited from earlier work
[2] = Studies of stability under forced conditions; format: physicochemical
Procedure: Additionally, the compound of formula I has shown excellent stability properties. The compound of formula I has remained stable for at least 6 months in studies of stability under forced conditions at 50 and 60° C., as well as at 40° C. and 75% humidity. This represents more than 2 years of stability under normal conditions.

time remained stable ([2]; 40° C. and 75% humidity)	time remained stable ([2]; forced conditions at 50° C.)	time remained stable ([2]; forced conditions at 60° C.)	stability under normal conditions ([2]; represented by the forced-condition results)	Structure (SMILES)	MED, reduction of the immobility in the tail suspension test [1]	minimal effective dose (MED), potentiation of the 5-HTP-induced syndrome (5-HTP-induced syndrome)
–	–	–	–	Fc1cccc(O[C@H](c2ccccc2)C2CCNCC2)c1 [(S)-4-[(3-fluorophenoxy)phenylmethyl]piperidine]	10 mg/kg	10 mg/kg
at least 6 months	at least 6 months	at least 6 months	more than 2 years	CS(=O)(=O)O.Fc1cccc(OC(c2ccccc2)C2CCNCC2)c1 (stereo not drawn) [compound of formula I, 4-[(3-fluorophenoxy)phenylmethyl]piperidine methanesulfonic acid salt]	–	–
